OC(Cc1ccccc1Cl)(Cn1[nH]cnc1=S)C1(Cl)CC1 (centres undefined)
solubility (mole fraction) (in acetonitrile, 283.15 K): 0.00629
solubility (mole fraction) (in acetonitrile, 288.15 K): 0.008
solubility (mole fraction) (in acetonitrile, 293.15 K): 0.0103
solubility (mole fraction) (in acetonitrile, 298.15 K): 0.0126
solubility (mole fraction) (in acetonitrile, 303.15 K): 0.0171
solubility (mole fraction) (in acetonitrile, 308.15 K): 0.0214
solubility (mole fraction) (in acetonitrile, 313.15 K): 0.0254
solubility (mole fraction) (in isopropanol, 283.15 K): 0.0115
solubility (mole fraction) (in isopropanol, 288.15 K): 0.0142
solubility (mole fraction) (in isopropanol, 293.15 K): 0.0176
solubility (mole fraction) (in isopropanol, 298.15 K): 0.0215
solubility (mole fraction) (in isopropanol, 303.15 K): 0.0268
solubility (mole fraction) (in isopropanol, 308.15 K): 0.0331
solubility (mole fraction) (in isopropanol, 313.15 K): 0.0385
solubility (mole fraction) (in methanol, 283.15 K): 0.01
solubility (mole fraction) (in methanol, 288.15 K): 0.0127
solubility (mole fraction) (in methanol, 293.15 K): 0.0154
solubility (mole fraction) (in methanol, 298.15 K): 0.019
solubility (mole fraction) (in methanol, 303.15 K): 0.0232
solubility (mole fraction) (in methanol, 308.15 K): 0.0307
solubility (mole fraction) (in methanol, 313.15 K): 0.0371
solubility (mole fraction) (in n-butanol, 283.15 K): 0.0147
solubility (mole fraction) (in n-butanol, 288.15 K): 0.018
solubility (mole fraction) (in n-butanol, 293.15 K): 0.0215
solubility (mole fraction) (in n-butanol, 298.15 K): 0.0268
solubility (mole fraction) (in n-butanol, 303.15 K): 0.0327
solubility (mole fraction) (in n-butanol, 308.15 K): 0.0417
solubility (mole fraction) (in n-butanol, 313.15 K): 0.0513
solubility (mole fraction) (in n-propanol, 283.15 K): 0.0125
solubility (mole fraction) (in n-propanol, 288.15 K): 0.0161
solubility (mole fraction) (in n-propanol, 293.15 K): 0.0199
solubility (mole fraction) (in n-propanol, 298.15 K): 0.0248
solubility (mole fraction) (in n-propanol, 303.15 K): 0.0305
solubility (mole fraction) (in n-propanol, 308.15 K): 0.0373
solubility (mole fraction) (in n-propanol, 313.15 K): 0.0465
solubility (mole fraction) (in sec-butanol, 283.15 K): 0.00735
solubility (mole fraction) (in sec-butanol, 288.15 K): 0.00954
solubility (mole fraction) (in sec-butanol, 293.15 K): 0.0124
solubility (mole fraction) (in sec-butanol, 298.15 K): 0.0152
solubility (mole fraction) (in sec-butanol, 303.15 K): 0.0191
solubility (mole fraction) (in sec-butanol, 308.15 K): 0.0259
solubility (mole fraction) (in sec-butanol, 313.15 K): 0.0321
solubility (mole fraction) (in toluene, 283.15 K): 0.00196
solubility (mole fraction) (in toluene, 288.15 K): 0.00287
solubility (mole fraction) (in toluene, 293.15 K): 0.00368
solubility (mole fraction) (in toluene, 298.15 K): 0.00481
solubility (mole fraction) (in toluene, 303.15 K): 0.00574
solubility (mole fraction) (in toluene, 308.15 K): 0.00782
solubility (mole fraction) (in toluene, 313.15 K): 0.0101

Reference: BigSolDB 2.1
